In patent US9567322B2, “Substituted tetrahydropyrans and method of use” (AbbVie S.á.r.l., priority 2014, dated 2017):

Biological target: T1, F508delCFTR (Homo sapiens, UniProt P13569, DEL508-508)
T1 construct: expressed in transfected cells; host or cells: CFBE41o- (CFBE41o-F508delCFTR-HRP), doxycycline-inducible
Assay: Cell Surface Expression-Horse Radish Peroxidase (CSE-HRP) assay
Format: cell-based
Details: CFBE41o-F508delCFTR-HRP cells; for EC50: cell surface expression, luminescence readout, 18-24 hours at 33° C., highest concentration tested 20 μM, 8-point curve; for Maximum % activity: maximum at any tested concentration, normalized to on-plate positive control (3 μM) and DMSO
Description: Cell Surface Expression-Horse Radish Peroxidase (CSE-HRP) Assay:
A cellular assay for measuring the F508delCFTR cell surface expression after correction with test compounds was developed in human lung derived epithelial cell line (CFBE41o-) (Veit G et al, (2012) Mol Biol Cell. 23(21): 4188-4202). This was achieved by expressing the F508delCFTR mutation along with a horseradish peroxidase (HRP) in the fourth exofacial loop and then measuring the HRP activity using luminescence readout from these cells, CFBE41o-F508delCFTR-HRP, that were incubated overnight with the test corrector compounds. Briefly, for this primary assay, the CFBE41o-F508delCFTR-HRP cells were plated in 384-well plates (Greiner Bio-one; Cat 781080) at 4,000 cells/well along with 0.5 μg/mL doxycycline to induce the F508delCFTR-HRP expression and further incubated at 37° C., 5% CO2 for 72 hours. The test compounds were then added at the required concentrations and further incubated for 18-24 hours at 33° C. The highest concentration tested was 20 μM with an 8-point concentration response curve using a 3-fold dilution. Three replicate plates were run to determine one EC50. All plates contained negative controls (dimethyl sulfoxide, DMSO) and positive controls (3 μM of 3-[(2R,4R)-4-({[1-(2,2-difluoro-1,3-benzodioxol-5-yl)cyclopropyl]carbonyl}amino)-7-methoxy-3,4-dihydro-2H-chromen-2-yl]benzoic acid) as well as on-plate concentration response of the positive control. Post incubation, the plates were washed 5× times with Dulbecco's phosphate buffered saline (DPBS), followed by the addition of the HRP substrate, luminol (50 μL), and measuring the HRP activity using luminescence readout on EnVision® Multilabel Plate Reader (Perkin Elmer; product number 2104-0010). The raw counts from the experiment are analyzed using Accelrys® Assay Explorer v3.3.
Z′ greater than 0.5 was used as passing quality control criteria for the plates.
The Z′ is defined as: 1−[3*SDPositive Control+3*SDNegative Control/Absolute(MeanPositive Control−MeanNegative Control)],
wherein “SD” is standard deviation.
The % activity measured at each of the 8 test concentrations of the test compound was normalized to the on-plate positive control using the following formula: % activity=[(test compound response−DMSO response)/(positive control response−DMSO response)]*100
The maximum % activity achieved for the test compound at any tested concentration is presented in Table 1 along with the EC50 calculated using the following general sigmoidal curve with variable Hill slope equation (described as Model 42 in the Accelrys® Assay Explorer v3.3 software): y=(a−d)/(1+(x/c)^b)+d General sigmoidal curve with concentration, response, top, bottom, EC50 and Hill slope.
This model describes a sigmoidal curve with an adjustable baseline, a. The equation can be used to fit curves where response is either increasing or decreasing with respect to the independent variable, “x”.
“x” is a concentration of drug under test.
“a” is the maximum response, and “d” is the minimum response
“c” is the inflection point (EC50) for the curve. That is, “y” is halfway between the lower and upper asymptotes when x=c.
“b” is the slope-factor or Hill coefficient. The sign of b is positive when the response increases with increasing dose and is negative when the response decreases with increasing dose (inhibition).

T1 sequence (P13569 with tags, fused parts or gaps DEL508-508): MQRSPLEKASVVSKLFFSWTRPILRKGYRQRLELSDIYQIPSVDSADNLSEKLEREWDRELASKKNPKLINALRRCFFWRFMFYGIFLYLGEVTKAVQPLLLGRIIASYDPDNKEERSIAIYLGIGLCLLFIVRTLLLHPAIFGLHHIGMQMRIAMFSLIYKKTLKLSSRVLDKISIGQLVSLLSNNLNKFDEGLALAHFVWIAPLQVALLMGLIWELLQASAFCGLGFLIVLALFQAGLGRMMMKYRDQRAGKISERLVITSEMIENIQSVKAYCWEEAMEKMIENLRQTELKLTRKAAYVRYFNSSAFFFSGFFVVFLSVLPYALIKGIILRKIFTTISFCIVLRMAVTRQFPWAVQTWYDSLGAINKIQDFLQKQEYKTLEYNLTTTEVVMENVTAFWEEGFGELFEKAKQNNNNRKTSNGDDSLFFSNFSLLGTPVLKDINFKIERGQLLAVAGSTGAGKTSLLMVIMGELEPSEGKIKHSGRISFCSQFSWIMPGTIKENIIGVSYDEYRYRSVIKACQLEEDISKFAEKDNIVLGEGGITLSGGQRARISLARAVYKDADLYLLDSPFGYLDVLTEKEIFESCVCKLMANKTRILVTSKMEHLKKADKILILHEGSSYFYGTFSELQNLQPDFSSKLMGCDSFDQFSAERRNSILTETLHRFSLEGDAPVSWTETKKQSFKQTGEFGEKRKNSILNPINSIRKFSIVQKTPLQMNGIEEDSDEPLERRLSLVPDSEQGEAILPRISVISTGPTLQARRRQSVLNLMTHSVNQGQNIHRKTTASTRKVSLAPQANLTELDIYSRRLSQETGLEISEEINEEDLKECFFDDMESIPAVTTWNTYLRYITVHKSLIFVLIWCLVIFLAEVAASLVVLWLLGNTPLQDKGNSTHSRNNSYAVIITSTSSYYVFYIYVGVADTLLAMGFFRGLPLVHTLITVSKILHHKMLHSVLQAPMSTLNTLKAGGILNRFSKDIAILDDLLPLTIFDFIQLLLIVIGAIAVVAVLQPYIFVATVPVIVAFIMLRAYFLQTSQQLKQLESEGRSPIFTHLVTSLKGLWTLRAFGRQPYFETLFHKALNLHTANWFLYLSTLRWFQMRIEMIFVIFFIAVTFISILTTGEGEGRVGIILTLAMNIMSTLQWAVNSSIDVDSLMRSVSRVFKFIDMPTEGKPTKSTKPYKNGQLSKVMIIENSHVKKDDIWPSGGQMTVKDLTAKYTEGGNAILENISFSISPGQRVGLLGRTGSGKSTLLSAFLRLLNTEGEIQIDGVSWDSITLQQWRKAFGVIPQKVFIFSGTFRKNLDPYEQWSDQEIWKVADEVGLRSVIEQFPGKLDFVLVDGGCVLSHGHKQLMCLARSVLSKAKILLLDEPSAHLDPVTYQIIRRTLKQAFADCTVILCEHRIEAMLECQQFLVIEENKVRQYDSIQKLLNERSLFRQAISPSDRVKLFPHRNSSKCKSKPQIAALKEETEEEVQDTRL

Compound | EC50 | Maximum % activity | Maximum % activity (3 µM)
CC1(C)C[C@H](NC(=O)C2(c3ccc4c(c3)OC(F)(F)O4)CC2)C[C@H](c2ccc(C(=O)O)cc2)O1 (racemic) [Example 35, rac-4-[(2R,4R)-4-({[1-(2,2-difluoro-1,3-benzodioxol-5-yl)cyclopropyl]carbonyl}amino)-6,6-dimethyltetrahydro-2H-pyran-2-yl]benzoic acid] | 2.87 µM | 89% | 
COC(=O)c1ccc([C@H]2C[C@@H](NC(=O)C3(c4ccc5c(c4)OC(F)(F)O5)CC3)CCO2)c(C)c1 (racemic) [Example 36, methyl rac-4-[(2R,4S)-4-({[1-(2,2-difluoro-1,3-benzodioxol-5-yl)cyclopropyl]carbonyl}amino)tetrahydro-2H-pyran-2-yl]-3-methylbenzoate] | 0.57 µM | 100% | 
COC(=O)c1ccc([C@H]2CC(NC(=O)C3(c4ccc5c(c4)OC(F)(F)O5)CC3)C[C@@H](C3CC3)O2)cc1 (mixture of isomers) [Example 38, methyl rac-4-[(2R,6S)-6-cyclopropyl-4-({[1-(2,2-difluoro-1,3-benzodioxol-5-yl)cyclopropyl]carbonyl}amino)tetrahydro-2H-pyran-2-yl]benzoate] | 2.48 µM | 84% | 
COC(=O)c1ccc([C@H]2C[C@@H](NC(=O)C3(c4ccc5c(c4)OC(F)(F)O5)CC3)C[C@@H](C)O2)cc1 (racemic) [Example 39, methyl rac-4-[(2R,4S,6R)-4-({[1-(2,2-difluoro-1,3-benzodioxol-5-yl)cyclopropyl]carbonyl}amino)-6-methyltetrahydro-2H-pyran-2-yl]benzoate] | 1.64 µM | 90% | 
C[C@@H]1C[C@H](NC(=O)C2(c3ccc4c(c3)OC(F)(F)O4)CC2)C[C@H](c2ccc(C(=O)O)cc2)O1 (racemic) [Example 45, rac-4-[(2R,4S,6R)-4-({[1-(2,2-difluoro-1,3-benzodioxol-5-yl)cyclopropyl]carbonyl}amino)-6-methyltetrahydro-2H-pyran-2-yl]benzoic acid] | 2 µM | 101% | 
COC(=O)c1ccc([C@H]2C[C@H](NC(=O)C3(c4ccc5c(c4)OC(F)(F)O5)CC3)C[C@@H](C)O2)cc1 (racemic) [Example 46, methyl rac-4-[(2R,4R,6R)-4-({[1-(2,2-difluoro-1,3-benzodioxol-5-yl)cyclopropyl]carbonyl}amino)-6-methyltetrahydro-2H-pyran-2-yl]benzoate] | 4.56 µM | 67% | 
COC(=O)c1ccc([C@H]2C[C@H](NC(=O)C3(c4ccc5c(c4)OC(F)(F)O5)CC3)C[C@@H](c3ccccc3)O2)cc1 (racemic) [Example 47, methyl rac-4-[(2R,4R,6S)-4-({[1-(2,2-difluoro-1,3-benzodioxol-5-yl)cyclopropyl]carbonyl}amino)-6-phenyltetrahydro-2H-pyran-2-yl]benzoate] | 6.47 µM | 73% | 
COC(=O)c1ccc([C@H]2C[C@@H](NC(=O)C3(c4ccc5c(c4)OC(F)(F)O5)CC3)C[C@@H](c3ccccc3)O2)cc1 (racemic) [Example 48, methyl rac-4-[(2R,4S,6S)-4-({[1-(2,2-difluoro-1,3-benzodioxol-5-yl)cyclopropyl]carbonyl}amino)-6-phenyltetrahydro-2H-pyran-2-yl]benzoate] | 0.83 µM | 100% | 
O=C(O)c1ccc([C@H]2C[C@H](NC(=O)C3(c4ccc5c(c4)OC(F)(F)O5)CC3)C[C@@H](c3ccccc3)O2)cc1 (racemic) [Example 49, rac-4-[(2R,4R,6S)-4-({[1-(2,2-difluoro-1,3-benzodioxol-5-yl)cyclopropyl]carbonyl}amino)-6-phenyltetrahydro-2H-pyran-2-yl]benzoic acid] | 3.08 µM | 77% | 
O=C(O)c1ccc([C@H]2C[C@@H](NC(=O)C3(c4ccc5c(c4)OC(F)(F)O5)CC3)C[C@@H](c3ccccc3)O2)cc1 (racemic) [Example 50, rac-4-[(2R,4S,6S)-4-({[1-(2,2-difluoro-1,3-benzodioxol-5-yl)cyclopropyl]carbonyl}amino)-6-phenyltetrahydro-2H-pyran-2-yl]benzoic acid] | 0.52 µM | 92% | 
COC(=O)c1ccc([C@H]2C[C@@H](NC(=O)C3(c4ccc5c(c4)OC(F)(F)O5)CC3)C[C@@H](c3ccc(OC)cc3)O2)cc1 (racemic) [Example 55, methyl rac-4-[(2R,4R,6S)-4-({[1-(2,2-difluoro-1,3-benzodioxol-5-yl)cyclopropyl]carbonyl}amino)-6-(4-methoxyphenyl)tetrahydro-2H-pyran-2-yl]benzoate] | 0.86 µM | 104% | 
COc1ccc([C@@H]2C[C@@H](NC(=O)C3(c4ccc5c(c4)OC(F)(F)O5)CC3)C[C@H](c3ccc(C(=O)O)cc3)O2)cc1 (racemic) [Example 56, rac-4-[(2R,4S,6S)-4-({[1-(2,2-difluoro-1,3-benzodioxol-5-yl)cyclopropyl]carbonyl}amino)-6-(4-methoxyphenyl)tetrahydro-2H-pyran-2-yl]benzoic acid] | 1.9 µM | 89% | 
COc1ccc([C@@H]2C[C@H](NC(=O)C3(c4ccc5c(c4)OC(F)(F)O5)CC3)C[C@H](c3ccc(C(=O)O)cc3)O2)cc1 (racemic) [Example 57, rac-4-[(2R,4R,6S)-4-({[1-(2,2-difluoro-1,3-benzodioxol-5-yl)cyclopropyl]carbonyl}amino)-6-(4-methoxyphenyl)tetrahydro-2H-pyran-2-yl]benzoic acid] | 0.58 µM | 90% | 
O=C(O)c1ccc([C@H]2C[C@H](NC(=O)C3(c4ccc5c(c4)OC(F)(F)O5)CC3)C[C@@H](c3ccccc3)O2)c(F)c1 (racemic) [Example 61, rac-4-[(2R,4R,6S)-4-({[1-(2,2-difluoro-1,3-benzodioxol-5-yl)cyclopropyl]carbonyl}amino)-6-phenyltetrahydro-2H-pyran-2-yl]-3-fluorobenzoic acid] | 2.54 µM | 82% | 
COC(=O)c1ccc([C@H]2C[C@@H](NC(=O)C3(c4ccc5c(c4)OC(F)(F)O5)CC3)C[C@@H](c3ccccc3)O2)c(C)c1 (racemic) [Example 62, methyl rac-4-[(2R,4S,6S)-4-({[1-(2,2-difluoro-1,3-benzodioxol-5-yl)cyclopropyl]carbonyl}amino)-6-phenyltetrahydro-2H-pyran-2-yl]-3-methylbenzoate] | 0.88 µM | 111% | 
COC(=O)c1ccc([C@H]2C[C@@H](NC(=O)C3(c4ccc5c(c4)OC(F)(F)O5)CC3)C[C@@H](c3ccccc3)O2)c(F)c1 (racemic) [Example 63, methyl rac-4-[(2R,4S,6S)-4-({[1-(2,2-difluoro-1,3-benzodioxol-5-yl)cyclopropyl]carbonyl}amino)-6-phenyltetrahydro-2H-pyran-2-yl]-3-fluorobenzoate] | 0.86 µM | 105% | 
Cc1cc(C(=O)O)ccc1[C@H]1C[C@H](NC(=O)C2(c3ccc4c(c3)OC(F)(F)O4)CC2)C[C@@H](c2ccccc2)O1 (racemic) [Example 64, rac-4-[(2R,4R,6S)-4-({[1-(2,2-difluoro-1,3-benzodioxol-5-yl)cyclopropyl]carbonyl}amino)-6-phenyltetrahydro-2H-pyran-2-yl]-3-methylbenzoic acid] | 2.4 µM |  | 53%
